Values of other authors in article PMC8513935.

Assays:
[1] = log P octanol/water from commercial databases, averaged (the ESI); details: Octanol (wet), 25 C
[2] = experimental, compiled by the authors from the literature (the ESI cites the sources)
[3] = derived by the authors as gas->solvent minus gas->water (a hypothetical dry solvent; the ESI), not a two-phase measurement

c1ccc2c(c1)-c1cccc3cccc-2c13
log K of transfer, water to solvent [1]: 5.16 log10 K
log K of transfer, gas to solvent ([2]; 1,2-Dichloroethane, 25 C): 9.52 log10 K
log K of transfer, gas to solvent ([2]; 2-Methylpropan-1-ol, 25 C): 8.1 log10 K
log K of transfer, gas to solvent ([2]; 3-Methylbutan-1-ol, 25 C): 8.25 log10 K
log K of transfer, gas to solvent ([2]; Acetonitrile, 25 C): 8.75 log10 K
log K of transfer, gas to solvent ([2]; Benzene, 25 C): 9.46 log10 K
log K of transfer, gas to solvent ([2]; Butan-1-ol, 25 C): 8.4 log10 K
log K of transfer, gas to solvent ([2]; Butan-2-ol, 25 C): 8.25 log10 K
log K of transfer, gas to solvent ([2]; CCl4, 25 C): 9.27 log10 K
log K of transfer, gas to solvent ([2]; Chloroform, 25 C): 9.56 log10 K
log K of transfer, gas to solvent ([2]; Cyclohexane, 25 C): 8.51 log10 K
log K of transfer, gas to solvent ([2]; Di-n-butyl ether, 25 C): 8.84 log10 K
log K of transfer, gas to solvent ([2]; Diethyl Ether, 25 C): 9.08 log10 K
log K of transfer, gas to solvent ([2]; Ethanol, 25 C): 8.33 log10 K
log K of transfer, gas to solvent ([2]; Heptan-1-ol, 25 C): 8.72 log10 K
log K of transfer, gas to solvent ([2]; Hexadecane, 25 C): 8.82 log10 K
log K of transfer, gas to solvent ([2]; Hexan-1-ol, 25 C): 8.56 log10 K
log K of transfer, gas to solvent ([2]; Hexane, 25 C): 8.41 log10 K
log K of transfer, gas to solvent ([2]; Methanol, 25 C): 8.18 log10 K
log K of transfer, gas to solvent ([2]; Octan-1-ol, 25 C): 8.61 log10 K
log K of transfer, gas to solvent ([2]; Pentan-1-ol, 25 C): 8.49 log10 K
log K of transfer, gas to solvent ([2]; Propan-1-ol, 25 C): 8.31 log10 K
log K of transfer, gas to solvent ([2]; Propan-2-ol, 25 C): 8.15 log10 K
log K of transfer, gas to solvent ([2]; Toluene, 25 C): 9.38 log10 K
log K of transfer, gas to solvent ([2]; Water, 25 C): 3.44 log10 K
log K of transfer, water to solvent ([3]; 1,2-Dichloroethane, 25 C): 6.08 log10 K
log K of transfer, water to solvent ([3]; 2-Methylpropan-1-ol, 25 C): 4.66 log10 K
log K of transfer, water to solvent ([3]; 3-Methylbutan-1-ol, 25 C): 4.81 log10 K
log K of transfer, water to solvent ([3]; Acetonitrile, 25 C): 5.31 log10 K
log K of transfer, water to solvent ([3]; Benzene, 25 C): 6.02 log10 K
log K of transfer, water to solvent ([3]; Butan-1-ol, 25 C): 4.96 log10 K
log K of transfer, water to solvent ([3]; Butan-2-ol, 25 C): 4.81 log10 K
log K of transfer, water to solvent ([3]; CCl4, 25 C): 5.83 log10 K
log K of transfer, water to solvent ([3]; Chloroform, 25 C): 6.12 log10 K
log K of transfer, water to solvent ([3]; Cyclohexane, 25 C): 5.07 log10 K
log K of transfer, water to solvent ([3]; Di-n-butyl ether, 25 C): 5.41 log10 K
log K of transfer, water to solvent ([3]; Diethyl Ether, 25 C): 5.64 log10 K
log K of transfer, water to solvent ([3]; Ethanol, 25 C): 4.89 log10 K
log K of transfer, water to solvent ([3]; Heptan-1-ol, 25 C): 5.28 log10 K
log K of transfer, water to solvent ([3]; Hexadecane, 25 C): 5.38 log10 K
log K of transfer, water to solvent ([3]; Hexan-1-ol, 25 C): 5.13 log10 K
log K of transfer, water to solvent ([3]; Hexane, 25 C): 4.98 log10 K
log K of transfer, water to solvent ([3]; Methanol, 25 C): 4.74 log10 K
log K of transfer, water to solvent ([3]; Octan-1-ol(dry), 25 C): 5.17 log10 K
log K of transfer, water to solvent ([3]; Pentan-1-ol, 25 C): 5.05 log10 K
log K of transfer, water to solvent ([3]; Propan-1-ol, 25 C): 4.87 log10 K
log K of transfer, water to solvent ([3]; Propan-2-ol, 25 C): 4.72 log10 K
log K of transfer, water to solvent ([3]; Toluene, 25 C): 5.94 log10 K

c1ccc2cc3ccccc3cc2c1
log K of transfer, water to solvent [1]: 4.45 log10 K
log K of transfer, gas to solvent ([2]; 2-Methylpropan-1-ol, 25 C): 7.16 log10 K
log K of transfer, gas to solvent ([2]; 2-Methylpropan-2-ol, 25 C): 7.12 log10 K
log K of transfer, gas to solvent ([2]; 3-Methylbutan-1-ol, 25 C): 7.28 log10 K
log K of transfer, gas to solvent ([2]; Acetonitrile, 25 C): 7.66 log10 K
log K of transfer, gas to solvent ([2]; Benzene, 25 C): 8.38 log10 K
log K of transfer, gas to solvent ([2]; Butan-1-ol, 25 C): 7.42 log10 K
log K of transfer, gas to solvent ([2]; Butan-2-ol, 25 C): 7.26 log10 K
log K of transfer, gas to solvent ([2]; Butanone, 25 C): 8.32 log10 K
log K of transfer, gas to solvent ([2]; Butyronitrile, 25 C): 8.17 log10 K
log K of transfer, gas to solvent ([2]; CCl4, 25 C): 8.17 log10 K
log K of transfer, gas to solvent ([2]; Chlorobenzene, 25 C): 8.45 log10 K
log K of transfer, gas to solvent ([2]; Chloroform, 25 C): 8.4 log10 K
log K of transfer, gas to solvent ([2]; Cyclohexane, 25 C): 7.52 log10 K
log K of transfer, gas to solvent ([2]; Cyclohexanone, 25 C): 8.53 log10 K
log K of transfer, gas to solvent ([2]; Decan-1-ol, 25 C): 7.71 log10 K
log K of transfer, gas to solvent ([2]; Di-n-butyl ether, 25 C): 7.79 log10 K
log K of transfer, gas to solvent ([2]; Dichloromethane, 25 C): 8.62 log10 K
log K of transfer, gas to solvent ([2]; Diethyl Ether, 25 C): 7.97 log10 K
log K of transfer, gas to solvent ([2]; Ethanol, 25 C): 7.62 log10 K
log K of transfer, gas to solvent ([2]; Heptan-1-ol, 25 C): 7.58 log10 K
log K of transfer, gas to solvent ([2]; Hexadecane, 25 C): 7.56 log10 K
log K of transfer, gas to solvent ([2]; Hexan-1-ol, 25 C): 7.53 log10 K
log K of transfer, gas to solvent ([2]; Hexane, 25 C): 7.45 log10 K
log K of transfer, gas to solvent ([2]; Methanol, 25 C): 7.25 log10 K
log K of transfer, gas to solvent ([2]; Octan-1-ol, 25 C): 7.55 log10 K
log K of transfer, gas to solvent ([2]; Pentan-1-ol, 25 C): 7.46 log10 K
log K of transfer, gas to solvent ([2]; Propan-1-ol, 25 C): 7.36 log10 K
log K of transfer, gas to solvent ([2]; Propan-2-ol, 25 C): 7.36 log10 K
log K of transfer, gas to solvent ([2]; Propanone, 25 C): 8.22 log10 K
log K of transfer, gas to solvent ([2]; Propionitrile, 25 C): 8.07 log10 K
log K of transfer, gas to solvent ([2]; Tetrahydrofuran, 25 C): 8.71 log10 K
log K of transfer, gas to solvent ([2]; Toluene, 25 C): 8.3 log10 K
log K of transfer, gas to solvent ([2]; Water, 25 C): 3.03 log10 K
log K of transfer, water to solvent ([3]; 2-Methylpropan-1-ol, 25 C): 4.13 log10 K
log K of transfer, water to solvent ([3]; 2-Methylpropan-2-ol, 25 C): 4.09 log10 K
log K of transfer, water to solvent ([3]; 3-Methylbutan-1-ol, 25 C): 4.25 log10 K
log K of transfer, water to solvent ([3]; Acetone, 25 C): 5.19 log10 K
log K of transfer, water to solvent ([3]; Acetonitrile, 25 C): 4.63 log10 K
log K of transfer, water to solvent ([3]; Benzene, 25 C): 5.35 log10 K
log K of transfer, water to solvent ([3]; Butan-1-ol, 25 C): 4.39 log10 K
log K of transfer, water to solvent ([3]; Butan-2-ol, 25 C): 4.23 log10 K
log K of transfer, water to solvent ([3]; Butanone, 25 C): 5.29 log10 K
log K of transfer, water to solvent ([3]; Butyronitrile, 25 C): 5.14 log10 K
log K of transfer, water to solvent ([3]; CCl4, 25 C): 5.14 log10 K
log K of transfer, water to solvent ([3]; Chlorobenzene, 25 C): 5.42 log10 K
log K of transfer, water to solvent ([3]; Chloroform, 25 C): 5.37 log10 K
log K of transfer, water to solvent ([3]; Cyclohexane, 25 C): 4.49 log10 K
log K of transfer, water to solvent ([3]; Cyclohexanone, 25 C): 5.5 log10 K
log K of transfer, water to solvent ([3]; Decan-1-ol, 25 C): 4.68 log10 K
log K of transfer, water to solvent ([3]; Di-n-butyl ether, 25 C): 4.76 log10 K
log K of transfer, water to solvent ([3]; Dichloromethane, 25 C): 5.59 log10 K
log K of transfer, water to solvent ([3]; Diethyl Ether, 25 C): 4.94 log10 K
log K of transfer, water to solvent ([3]; Ethanol, 25 C): 4.59 log10 K
log K of transfer, water to solvent ([3]; Heptan-1-ol, 25 C): 4.55 log10 K
log K of transfer, water to solvent ([3]; Hexadecane, 25 C): 4.54 log10 K
log K of transfer, water to solvent ([3]; Hexan-1-ol, 25 C): 4.5 log10 K
log K of transfer, water to solvent ([3]; Hexane, 25 C): 4.42 log10 K
log K of transfer, water to solvent ([3]; Methanol, 25 C): 4.22 log10 K
log K of transfer, water to solvent ([3]; Octan-1-ol(dry), 25 C): 4.52 log10 K
log K of transfer, water to solvent ([3]; Pentan-1-ol, 25 C): 4.43 log10 K
log K of transfer, water to solvent ([3]; Propan-1-ol, 25 C): 4.33 log10 K
log K of transfer, water to solvent ([3]; Propan-2-ol, 25 C): 4.33 log10 K
log K of transfer, water to solvent ([3]; Propionitrile, 25 C): 5.04 log10 K
log K of transfer, water to solvent ([3]; Tetrahydrofuran, 25 C): 5.68 log10 K
log K of transfer, water to solvent ([3]; Toluene, 25 C): 5.27 log10 K
